Test system: Rattus norvegicus
[1] = subchronic, duration: 90 days, oral, gavage, M/F, Crj:CD, clinical signs
[2] = subchronic, duration: 90 days, oral, diet

Cc1cc(SC(=O)CC(C)C)c(C)o1 [2,5-Dimethyl-3-thioisovalerylfuran]
NOEL (subchronic, duration: 90 days): 0.73 mg/kg-day

CC1CC(S)C(C)O1 (centres undefined) [2,5-Dimethyltetrahydrofuran-3-thiol]
NOAEL [1]: 5 mg/kg-day

CSC(=O)c1ccco1 [2-Furancarbothioic acid, S-methyl ester]
NOAEL (subchronic, duration: 90 days, oral): 6.63 mg/kg-day

CC(=O)SC1=C(C)OCC1 [2-Methyl-3-thioacetoxy-4,5-dihydrofuran]
NOEL (chronic, duration: 1 years, oral, diet): 8.3 mg/kg-day

Cc1occc1SSSSc1ccoc1C [Bis(2-methyl-3-furyl) tetrasulfide]
NOEL (subchronic, duration: 90 days): 0.56 mg/kg-day

Cc1occc1SSc1ccoc1C [Bis(2-methyl-3-furyl)disulfide]
NOEL [2]: 0.45 mg/kg-day

CCOC(=O)CCSCc1ccco1 [Ethyl 3-(furfurylthio)propionate]
NOEL (subchronic, duration: 90 days): 17 mg/kg-day

Cc1cc(SSc2cc(C)oc2C)c(C)o1 [Furan, 3,3'-dithiobis[2,5-dimethyl-]
NOEL [2]: 0.45 mg/kg-day

CC1OCCC1S (centres undefined) [Tetrahydro-2-methyl-3-furanthiol]
NOAEL [1]: 5 mg/kg-day
